Patent US8834635B2, “Degreasing compositions derived from levulinic acid (a compound obtainable from biomass) and process for degreasing metal surfaces” (Institut Univ. de Ciencia Tecnologia, S.A., priority 2011, dated 2014)
≈ marks a conversion by molar mass, not a printed value.

How the values were obtained:
[1] = Surface degreasing of metal parts followed by solvent evaporation
[2] = Reusability of solvent without prior purification
Experimental: (§1) The removal Efficacy (RE) measures in percentage (%) the degree of removal of organic materials (metal protector and/or solvent) from the surface of metal parts. The removal efficacy test, the grease of ten metallic greased pieces was removed by degreasing process. The standard procedure is carried out by bringing the solvent into contact with ten metal pieces which were previously treated with the metal protector. The metal parts are immersed in the solvent without shaking during 10 minutes in one volume of fresh solvent followed by three consecutive washing cycles by immersion in clean water. The amount of organic material (grease and/or solvent) that was not eliminated by the assayed procedure was determined by direct weight after removal of organic residues from the metallic parts by standard cleaning procedure with trichloroethylene.
The recovery and reusability of solvents is critical in order to have an economically viable process. The reusability of butyl levulinate (LAOC-4) has been studied for both preservatives. The methodology involved the recovery and reuse of the solvent several times without any prior purification.

[3] = Removal efficacy test, solvent immersion followed by rinsing with water; conditions: for Removal Efficacy normalized to trichloroethylene: Cereous preservative, water rinsing
From the text: (§2) For our evaluation, a comparative method was used in which removal efficacy (RE) of several alternative solvents are compared with RE value obtained for the industrial standard degreaser, trichloroethylene.
as §1
Preservative B is a cereous-based preservative.
(§3) The degreasing efficacy of the LAOC solvent family was studied. These experiments remove the grease of ten greased pieces according to the procedure described before. This experiment was carried out for two different greases and the obtained results are described in table 2.

[4] = as above; conditions: for Removal Efficacy normalized to trichloroethylene: Solvent-based preservative, water rinsing
From the text: as §2, §1
Preservative A is a solvent-based preservative Aromatic hydrocarbons are often used in preservative formulations.
as §3

[5] = Fish acute toxicity; conditions: fish, in vivo; read-out: Fish acute toxicity, experimental, LC50
[6] = test system: Fish; assay: Fish acute toxicity; conditions: in vivo
[7] = Cytotoxicity, in vitro NRU; type: cell-based; conditions: read-out: Cytotoxicity, in vitro NRU, IC50 (mg/mL). Experimental.
[8] = classified by many health authorities, R45 risk phrase; cited from earlier work

| SMILES | Removal Efficacy normalized to trichloroethylene [3] [%] | Removal Efficacy normalized to trichloroethylene [4] [%] | LC50 [5] [µg/mL] | Ecotoxicity rating (fish acute toxicity and ready biodegradability) [6] | IC50 [7] [mg/mL] | other results |
| --- | --- | --- | --- | --- | --- | --- |
| CCCCOC(=O)CCC(C)=O [LAOC-4, Butyl levulinate] | 99.9 | 79.0 | < 100 | Low ecotox. | 5.7 (≈ 33.1 mM) | Removal efficacy (%) ([1]; Ultrasound, 41° C., 10 min, evaporation 23 s at 117° C.): 100%; Reusability (values normalized to trichloroethylene = 100) ([2]; Cereous preservative, number of cycles 1): 98.0; Reusability (values normalized to trichloroethylene = 100) ([2]; Cereous preservative, number of cycles 2): 93.2; Reusability (values normalized to trichloroethylene = 100) ([2]; Cereous preservative, number of cycles 4): 93.4; Reusability (values normalized to trichloroethylene = 100) ([2]; Cereous preservative, number of cycles 7): 85.9; Reusability (values normalized to trichloroethylene = 100) ([2]; Cereous preservative, number of cycles 10): 84.6; Reusability (values normalized to trichloroethylene = 100) ([2]; Solvent based preservative, number of cycles 1): 74.4; Reusability (values normalized to trichloroethylene = 100) ([2]; Solvent based preservative, number of cycles 2): 78.2; Reusability (values normalized to trichloroethylene = 100) ([2]; Solvent based preservative, number of cycles 4): 62.2; Reusability (values normalized to trichloroethylene = 100) ([2]; Solvent based preservative, number of cycles 7): 69.7 |
| CC(=O)CCC(=O)OCC(C)C [LAOC-4i, iso-butyl levulinate] | 96.4 | 87.8 | < 100 | Low ecotox. | 4.4 (≈ 25.5 mM) |  |
| CCCCCCCCOC(=O)CCC(C)=O [LAOC-8, Octyl levulinate] | 61.0 |  |  |  |  |  |
| CCCCCOC(=O)CCC(C)=O [LAOC-5, Pentyl levulinate] | 89.3 | 37.7 | < 100 | Low ecotox. | 16.6 (≈ 89.1 mM) |  |
| CCCOC(=O)CCC(C)=O [LAOC-3, Propyl levulinate] | 81.7 | 79.6 |  |  |  |  |
| CCOC(=O)CCC(C)=O [LAOC-2, Ethyl levulinate] | 70.9 | 53.0 |  |  |  |  |
| CCCCCCOC(=O)CCC(C)=O [LAOC-6, Hexyl levulinate] | 56.0 |  |  |  |  |  |
| ClC=C(Cl)Cl [Trichloroethylene, reference compound] | 100.0 | 100.0 |  |  |  | Removal efficacy (%) ([1]; Immersion, 20° C., 3 min, evaporation 3 min at 20° C.): 100%; RE (%) Removal Efficacy ([3]; Preservative B (cereous-based), immersion 10 minutes, three water washing cycles): 98.1%; RE (%) Removal Efficacy ([4]; Preservative A (solvent-based), immersion 10 minutes, three water washing cycles): 94.2%; removal efficacy (RE) ([4]; depending on the nature of the preservative (both preservatives A and B)): 94-98%; carcinogen classification [8]: probable carcinogen |
| CC(=O)CCC(=O)OC(C)C [LAOC-3i, iso-propyl levulinate] | 87.0 |  |  |  |  |  |
